US12577536B2, “Method for isolating ureteric bud tip cells” (KYOTO UNIVERSITY, priority 2019, dated 2026)

What was measured:
Type in all cases: cell-based, human
[1] = test system: dissociated tip colony cells; test: Collecting duct progenitor induction, 2D culture with immunostaining
Experimental: For 2D cultures, day 7 tip cell colonies detached from hydrogel were dissociated into single cells by pipetting after treatment with Accutase for 3 min at 37° C. The single cells were resuspended with Essential 6 medium containing 1 μM IWR-1 (Tocris) and 0.5 μL/cm^2 iMatrix-511 silk with or without 1 μM A83-01 and seeded at a density of 4×10^4 cells/well in 96-well plates. For 3D cultures, day 14 reconstituted iUB organoids were treated with Essential 6 medium containing 1 μM IWR-1 and 1 μM A83-01 for 14 days.
Immunostaining analysis was performed as described previously with some modifications (Mae, SI. & Ryosaka, M. et al. Biochem Biophys Res Commun. 495, 954-61 (2018)). For 2D cultures, the cells were fixed with 4% paraformaldehyde (PFA)/PBS for 20 min at 4° C. After washing with PBS twice, the cells were blocked with 18 normal donkey serum (MERCK) and 3% bovine serum albumin (BSA; Nacalai Tesque)/PBST (PBS/0.25% Triton X-100, Nacalai Tesque) for 1 h at room temperature. Primary antibodies were diluted with blocking solution at 1:500 and incubated with the samples overnight at 4° C. After washing with PBST twice, secondary antibodies diluted with blocking solution at 1:500 were incubated for 1 h at room temperature.

[2] = test system: ND aggregates / iUB organoids; test: iUB organoid induction from ND aggregates; settings: 50 ng/ml EGF and 200 ng/ml FGF1 added together to organoid medium
Experimental: Unwanted cells were removed from the ND aggregates by pipetting (Mae, SI. & Ryosaka, M. et al. Biochem Biophys Res Commun. 495, 954-61 (2018)). The ND aggregates were treated with the same medium and factors containing 2% Matrigel for 6 days to constitute iUB organoids with epithelial polarity and tubular lumens. 50 ng/ml EGF (R&D Systems) and 200 ng/ml FGF1 (R&D Systems) were added to enhance budding. The tips were mechanically separated from iUB organoids and cultured in the same medium and factors containing 2% Matrigel for 6 to 14 days to reconstitute branching iUB organoids. The tips separated from the reconstituted iUB organoids were treated with the same medium and factors to repeatedly reconstitute iUB organoids.

[3] = test system: tip cell colonies; test: Reconstitution of iUB organoids from tip cell colonies; settings: organoid medium with CHIR99021
Experimental: Hydrogel was dissolved with Cell Recovery Solution (BD Biosciences) for 1 h at 4° C. to detach day 7 tip cell colonies. After washing with additional Cell Recovery Solution, the tip cell colonies were centrifuged at 500 g for 5 min at room temperature. Essential 6 medium containing 0.1 μM LDN193189, 100 ng/ml GDNF, 0.1 μM TTNPB, 200 ng/ml FGF8, 1 μM CHIR99021 or 10% Afamin/Wnt3a conditioned medium (MBL), 200 ng/ml R-spondin 1 (R&D systems), 50 ng/ml EGF, 200 ng/ml FGF1 and 10% Matrigel was applied to the tube including tip cell colonies. After pipetting gently with a wide-mouth micropipette (BMBio) not to break colonies, the suspension was distributed to low-attachment 35 mm dish (Sumitomo Bakelite) at 2 mL/dish. The medium was refreshed every 2 days. On day 4, each colony was placed onto one well of low-attachment 96-well plates in the same medium. After an additional 6 days, the tip region was separated from the reconstituted iUB organoid and treated with the same medium for 35 days.

In the case of `O=C(Nc1cccc2cccnc12)c1ccc(N2C(=O)[C@@H]3[C@H](C2=O)[C@@H]2C=C[C@H]3C2)cc1` [IWR-1], the “differentiation into AQP2-expressing, CAII-negative cells” value ([1]; 1 μM IWR-1, day 7 of 2D culture) is reported as “facilitated the differentiation of dissociated tip colony cells into the cells expressing a collecting duct principal cell marker, Aquaporin (AQP) 2”.
With FGF1: fibroblast growth factor the “budding of iUB organoids” value [2] was “promoted budding”.
In the case of `Cc1cccc(-c2nn(C(=S)Nc3ccccc3)cc2-c2ccnc3ccccc23)n1` [A83-01, 3-(6-Methyl-2-pyridinyl)-N-phenyl-4-(4-quinolinyl)-1H-pyrazole-1-carbothioamide], the “induction rates of AQP2-expressing cells” value ([1]; 1 μM A83-01 in combination with 1 μM IWR-1, day 7 of 2D culture) is reported as “improved the induction rates of these cells”.
For “EGF: protein called Epidermal Growth Factor (R&D systems) (NSDSECPLSHDGYCLHDGVCMYIEALDKYACNCVVGYIGERCQYRDLKWWELR; Epidermal growth factor; UniProt P01133 971-1023, looked up)”, the “budding of iUB organoids” value [2] was “promoted budding”.
With `Cc1c[nH]c(-c2cnc(NCCNc3ccc(C#N)cn3)nc2-c2ccc(Cl)cc2Cl)n1` [CHIR99021, 6-[2-[4-(2,4-Dichlorophenyl)-5-(4-methyl-1H-imidazole-2-yl)pyrimidine-2-ylamino]ethylamino]pyridine-3-carbonitrile] the “reconstitution of iUB organoids from tip cell colonies” value [3] was “only observed with tip cell colonies derived from 585A1 iPS cells”.
